Results on nine molecules are retold here after US20030013770A1, “Aminobenzophenones as inhibitors of il 1b and tnf” (priority 2001, published 2003).

Type in all cases: cell-based
For experiment [1], the system named is PMN-superoxide. Kind of experiment: Inhibition of PMN (polymorphonuclear) superoxide secretion. The conditions noted are these: human PMN granulocytes primed with TNF-α, stimulated with fMLP; reduction of ferricytochrome C; read-out: The median inhibition concentration (IC50, nM) of PMN-superoxide. On the procedure: The compounds of the present invention also show similar activities in the ability to inhibit PMN (polymorphonuclear) superoxide secretion which is also indicative of potentially useful anti-inflammatory drugs. The compounds were tested using the following procedure:
Human polymorphonuclear (PMN) granulocytes were isolated from human blood by dextran sedimentation, Lymphoprep® fractionation and hypotonic lysis of contaminating erythrocytes. Superoxide anion generation was measured as the superoxide dismutase inhibitable reduction of ferricytochrome C (Madhu, S. B. et al, Inflammation, 16, 241, (1992)). The cells were suspended in Hanks' balanced salt solution, and incubated for 10 minutes at 37° C. with test compounds. The cells were primed by the addition of TNF-α (3 ng/ml final concentration) for 10 minutes, and then ferricytochrome C, (final concentration 750 μg/ml), bovine serum albumin (BSA, final concentration 1 mg/ml) and formyl-methionyl-leucyl-phenylalanine (fMLP, final concentration 10^−7 M) were added for 3 minutes. The cells were chilled on ice, and were spun down. The optical densities in the cell-free supernatant was measured in a spectrophotometer. The median inhibitory concentration (IC50) of the compounds was calculated.

Experiment [2] deals with TNF-α. The experiment is described as follows: Inhibition of TNF-α secretion in LPS stimulated peripheral blood mononuclear cells. The conditions noted are these: PBMC; LPS stimulated human peripheral blood mononuclear cells; 18 hours; ELISA of medium; read-out: The median inhibition concentration (IC50, nM) of TNF-α. On the procedure:
(§1) To study the effect of the compound of the present invention in vitro the inhibition of the IL-1β and TNF-α secretion was measured using the following procedure:
(§2) Cytokine production was measured in the media from lipopolysaccharide (LPS) stimulated peripheral blood mononuclear cells. The mononuclear cells were isolated from human peripheral blood by Lymphoprep® (Nycomed, Norway) fractionation and suspended in RPMI 1640 (growth medium) with foetal calf serum (FCS, 2%), at a concentration of 5×10^5 cells/ml. The cells were incubated in 24-well tissue culture plates in 1 ml aliquots. Test compounds were dissolved in dimethylsulfoxide (DMSO, 10 mM) and were diluted with the medium. Compounds were added to the cells for 30 minutes, then LPS ([…] final concentration) was added. The plates were incubated for 18 hours, and the concentration of IL-1β and TNF-α in the medium was determined by enzyme-linked immunosorbent assays. The median inhibitory concentrations (IC50) of the compounds were calculated.
For orientation: ELISA stands for enzyme-linked immunosorbent assay.

For experiment [3], the system named is IL-1β. The experiment is described as follows: Inhibition of IL-1β secretion in LPS stimulated peripheral blood mononuclear cells. The conditions noted are these: PBMC; LPS stimulated human peripheral blood mononuclear cells; 18 hours; ELISA of medium; read-out: The median inhibition concentration (IC50, nM) of IL-1β. On the procedure: as §1, §2

SMILES strings stand for the structures.

For `Cc1ccc(F)cc1Nc1ccc(C(=O)c2ccccc2C)c(Cl)c1` [Compound 130, 2-Chloro-4-(5-fluoro-2-methyl-phenylamino)-2′-methylbenzophenone], the IC50 in experiment [1] stood at 50 nM; in experiment [2], 6.3 nM; in experiment [3], 40 nM.
The corresponding values for `Cc1cc(Br)ccc1Nc1ccc(C(=O)c2ccccc2C)c(Cl)c1` [Compound 136, 4-(4-Bromo-2-methyl-phenylamino)-2-chloro-2′-methylbenzophenone] are 100 nM, 8 nM and 100 nM.
For the molecule `Cc1ccccc1C(=O)c1ccc(Nc2ccccc2N)cc1Cl` [ref. A), 4-(2-Aminophenylamino)-2-chloro-2′-methylbenzophenone, reference compound], the IC50 in experiment [1] was 5 nM; in experiment [2], 7.1 nM; in experiment [3] it was 13 nM.
The corresponding values for `Cc1ccccc1Nc1ccc(C(=O)c2ccccc2C)c(Cl)c1` [Compound 102, 2-Chloro-2′-methyl-4-(2-methyl-phenylamino)benzophenone] are 6.3 nM, 4 nM and 13 nM.
The matching figures for `Cc1ccccc1C(=O)c1ccc(Nc2cccc(F)c2C)cc1Cl` [Compound 131, 2-Chloro-4-(3-fluoro-2-methyl-phenylamino)-2′-methylbenzophenone]: 13 nM, 4 nM and 13 nM.
The matching figures for `Cc1ccccc1C(=O)c1ccc(Nc2ccc(Cl)cc2)cc1Cl` [Compound 119, 2-Chloro-4-(4-chloro-phenylamino)-2′-methylbenzophenone]: 5 nM, 16 nM and 40 nM.
Regarding `Cc1ccccc1C(=O)c1ccc(Nc2ccccc2F)cc1Cl` [Compound 105, 2-Chloro-4-(2-fluoro-phenylamino)-2′-methylbenzophenone], the IC50 in experiment [1] is 13 nM; in experiment [2], 4 nM; in experiment [3], 25 nM.
For the molecule `Cc1ccccc1C(=O)c1ccc(Nc2cccc(Cl)c2)cc1Cl` [Compound 109, 2-Chloro-4-(3-chloro-phenylamino)-2′-methylbenzophenone], the figures for the IC50 in experiment [1], in experiment [2] and in experiment [3] were 20 nM, 7.9 nM and 50 nM, respectively.
For `Cc1cc(F)ccc1Nc1ccc(C(=O)c2ccccc2C)c(Cl)c1` [Compound 116, 2-Chloro-4-(4-fluoro-2-methyl-phenylamino)-2′-methylbenzophenone], the figures for the IC50 in experiment [1], in experiment [2] and in experiment [3] were 3.7 nM, 7.9 nM and 32 nM, respectively.
